What was measured:
GRK2 = biological target: T1, GRK2 (Homo sapiens, UniProt P25098); assay: Lance Kinase Activity Assay, GRK2; conditions: biochemical Lance kinase activity assay; class symbols A-F; read-out: GRK2 LANCE Assay (IC-50)
T1 construct: purchased Thermo Scientific
T1 sequence (P25098 1-689): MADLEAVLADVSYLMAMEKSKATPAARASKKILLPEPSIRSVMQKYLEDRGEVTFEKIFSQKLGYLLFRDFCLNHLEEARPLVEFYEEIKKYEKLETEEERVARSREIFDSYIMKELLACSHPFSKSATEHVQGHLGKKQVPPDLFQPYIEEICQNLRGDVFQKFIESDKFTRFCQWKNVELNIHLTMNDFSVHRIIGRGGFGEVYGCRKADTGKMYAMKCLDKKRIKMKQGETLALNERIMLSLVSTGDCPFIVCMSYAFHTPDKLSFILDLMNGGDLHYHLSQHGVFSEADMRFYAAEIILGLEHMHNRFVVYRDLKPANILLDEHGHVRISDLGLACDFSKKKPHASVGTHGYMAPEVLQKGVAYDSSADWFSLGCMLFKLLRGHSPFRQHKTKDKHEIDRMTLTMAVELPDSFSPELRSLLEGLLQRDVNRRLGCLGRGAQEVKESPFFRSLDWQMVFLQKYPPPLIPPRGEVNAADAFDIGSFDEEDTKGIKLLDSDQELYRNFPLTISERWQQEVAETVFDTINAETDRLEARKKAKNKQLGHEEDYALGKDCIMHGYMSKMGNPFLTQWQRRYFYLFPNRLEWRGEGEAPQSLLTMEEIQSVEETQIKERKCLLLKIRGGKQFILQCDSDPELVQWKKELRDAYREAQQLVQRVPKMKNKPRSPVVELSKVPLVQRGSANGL
Outline: (§1)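 IC50s from sigmoidal dose-response over 0.0025-10 μM compound, with phosphorylated ULight substrate detected by Eu anti-phospho antibody FRET after EDTA quench.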

GRK5 = biological target: T2, GRK5 (Homo sapiens, UniProt P34947); assay: Lance Kinase Activity Assay, GRK5; conditions: biochemical Lance kinase activity assay; class symbols A-F; read-out: GRK5 LANCE Assay (IC-50)
T2 construct: purchased Thermo Scientific
Outline: as §1

T2 sequence (P34947 whole entry): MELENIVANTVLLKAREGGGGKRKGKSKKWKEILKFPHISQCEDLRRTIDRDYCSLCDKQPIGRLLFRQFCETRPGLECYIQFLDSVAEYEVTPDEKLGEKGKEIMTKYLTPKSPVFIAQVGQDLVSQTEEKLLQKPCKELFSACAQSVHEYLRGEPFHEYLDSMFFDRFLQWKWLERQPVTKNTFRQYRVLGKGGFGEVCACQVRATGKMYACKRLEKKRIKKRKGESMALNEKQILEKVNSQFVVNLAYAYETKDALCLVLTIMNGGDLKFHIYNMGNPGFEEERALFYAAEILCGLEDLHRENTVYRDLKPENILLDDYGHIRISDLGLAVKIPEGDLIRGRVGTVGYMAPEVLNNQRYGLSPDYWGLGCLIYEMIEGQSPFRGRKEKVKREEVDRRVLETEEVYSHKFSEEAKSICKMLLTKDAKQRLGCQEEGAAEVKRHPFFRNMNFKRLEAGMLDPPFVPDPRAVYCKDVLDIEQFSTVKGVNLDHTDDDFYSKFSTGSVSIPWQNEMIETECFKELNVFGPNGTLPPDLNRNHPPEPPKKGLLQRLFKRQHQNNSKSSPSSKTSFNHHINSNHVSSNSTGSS

Compound | IC50 (GRK2) [nM] | IC50 (GRK5) [nM]
COc1ccc([C@@H](C)NC(=O)/C(C#N)=C/c2c[nH]c3ncc(OCc4nccn4C)cc23)cc1OC [Example 106, (R,E)-2-cyano-N-(1-(3,4-dimethoxyphenyl)ethyl)-3-(5-((1-methyl-1H-imidazol-2-yl)methoxy)-1H-pyrrolo[2,3-b]pyridin-3-yl)acrylamide] | 1000 to 10000 | ≤ 50
CS(=O)(=O)Nc1cccc(CNC(=O)/C(C#N)=C/c2c[nH]c3ncccc23)c1 [Example 29, (E)-2-cyano-N-(3-(methylsulfonamido)benzyl)-3-(1H-pyrrolo[2,3-b]pyridin-3-yl)acrylamide] | 100 to 500 | 500 to 1000
COc1ccc([C@@H](C)NC(=O)/C=C/c2c[nH]c3ncc(OC4CCS(=O)(=O)CC4)cc23)cc1OC [Example 55, (R,E)-N-(1-(3,4-dimethoxyphenyl)ethyl)-3-(5-((1,1-dioxidotetrahydro-2H-thiopyran-4-yl)oxy)-1H-pyrrolo[2,3-b]pyridin-3-yl)acrylamide] | > 10000 | ≤ 50
N#C/C(=C\c1c[nH]c2ncccc12)C(=O)NCc1ccc(F)cc1 [Example 57, (E)-2-cyano-N-(4-fluorobenzyl)-3-(1H-pyrrolo[2,3-b]pyridin-3-yl)acrylamide] | 1000 to 10000 | 100 to 500
COc1ccc([C@@H](C)NC(=O)/C(C#N)=C/c2c[nH]c3nccc(-c4ccc(C5CCN(C)CC5)cc4)c23)cc1OC [Example 170] | 1000 to 10000 | ≤ 50
COc1ccc([C@@H](C)NC(=O)/C(C#N)=C/c2c[nH]c3ncc(-c4cncnc4)cc23)cc1OC [Example 120, (R,E)-2-cyano-N-(1-(3,4-dimethoxyphenyl)ethyl)-3-(5-(pyrimidin-5-yl)-1H-pyrrolo[2,3-b]pyridin-3-yl)acrylamide] | 1000 to 10000 | 50 to 100
COc1ccc([C@@H](C)NC(=O)/C(C#N)=C/c2c[nH]c3ncc(-c4cn[nH]c4)cc23)cc1OC [Example 163] | 1000 to 10000 | ≤ 50
COc1ccc([C@@H](C)NC(=O)/C(C#N)=C/c2c[nH]c3ncc(-c4cccc(CN(C)C)c4)cc23)cc1OC [Example 148] | 1000 to 10000 | ≤ 50
COc1ccc([C@@H](C)NC(=O)/C(C#N)=C/c2c[nH]c3ncc(-c4cccc(C(=O)N5CCOCC5)c4)cc23)cc1OC [Example 127, (R,E)-2-cyano-N-(1-(3,4-dimethoxyphenyl)ethyl)-3-(5-(3-(morpholine-4-carbonyl)phenyl)-1H-pyrrolo[2,3-b]pyridin-3-yl)acrylamide] | > 10000 | ≤ 50
COc1ccc([C@@H](C)NC(=O)/C(C#N)=C/c2c[nH]c3ncc(C)cc23)cc1OC [Example 87, (R,E)-2-cyano-N-(1-(3,4-dimethoxyphenyl)ethyl)-3-(5-methyl-1H-pyrrolo[2,3-b]pyridin-3-yl)acrylamide] | 500 to 1000 | ≤ 50
COc1ccc([C@@H](C)NC(=O)/C(C#N)=C/c2c[nH]c3nccc(-c4ccccc4)c23)cc1OC [Example 175] | 1000 to 10000 | ≤ 50
COc1ccc([C@@H](C)NC(=O)/C(C#N)=C/c2c[nH]c3ncc(-c4ccc(OCCN(C)C)cc4)cc23)cc1OC [Example 154] | 500 to 1000 | ≤ 50
COc1ccc([C@@H](C)NC(=O)/C(C#N)=C/c2c[nH]c3ncc(C(=O)N4CCOCC4)cc23)cc1OC [Example 82] | > 10000 | 100 to 500
C[C@@H](NC(=O)/C(C#N)=C/c1c[nH]c2ncccc12)c1ccc(F)cc1 [Example 69, (R,E)-2-cyano-N-(1-(4-fluorophenyl)ethyl)-3-(1H-pyrrolo[2,3-b]pyridin-3-yl)acrylamide] | 50 to 100 | ≤ 50
COc1cc([C@@H](C)NC(=O)/C=C/c2c[nH]c3ncc(C)cc23)ccc1F [Example 54, (R,E)-N-(1-(4-fluoro-3-methoxyphenyl)ethyl)-3-(5-methyl-1H-pyrrolo[2,3-b]pyridin-3-yl)acrylamide] | ≤ 50 | ≤ 50
COc1ccc([C@@H](C)NC(=O)/C=C/c2c[nH]c3nccc(-c4cccc(S(=O)(=O)N(C)C)c4)c23)cc1OC [Example 227, (R,E)-N-(1-(3,4-dimethoxyphenyl)ethyl)-3-(4-(3-(N,N-dimethylsulfamoyl)phenyl)-1H-pyrrolo[2,3-b]pyridin-3-yl)acrylamide] | 1000 to 10000 | 100 to 500

Compound | IC50 (GRK2) [nM] | IC50 (GRK5) [nM]
COc1ccc([C@@H](C)NC(=O)/C=C/c2c[nH]c3ncc(-c4ccc(C5CCN(C)CC5)cc4)cc23)cc1OC [Example 196, (R,E)-N-(1-(3,4-dimethoxyphenyl)ethyl)-3-(5-(4-(1-methylpiperidin-4-yl)phenyl)-1H-pyrrolo[2,3-b]pyridin-3-yl)acrylamide] | 100 to 500 | ≤ 50
COc1ccc([C@@H](C)NC(=O)/C(C#N)=C/c2c[nH]c3ncc(-c4cccc5cnn(C)c45)cc23)cc1OC [Example 150] | > 10000 | 500 to 1000
COc1cc(C(C)NC(=O)/C=C/c2c[nH]c3ncc(-c4cnn(C)c4)cc23)cnc1OC (centres unmarked) [Example 265, (E)-N-(1-(5,6-dimethoxypyridin-3-yl)ethyl)-3-(5-(1-methyl-1H-pyrazol-4-yl)-1H-pyrrolo[2,3-b]pyridin-3-yl)acrylamide] | > 10000 | 50 to 100
COc1ccc([C@@H](C)NC(=O)/C(C#N)=C/c2c[nH]c3ncc(-c4ccc(N(C)C)nc4)cc23)cc1OC [Example 147, (R,E)-2-cyano-N-(1-(3,4-dimethoxyphenyl)ethyl)-3-(5-(6-(dimethylamino)pyridin-3-yl)-1H-pyrrolo[2,3-b]pyridin-3-yl)acrylamide] | 1000 to 10000 | ≤ 50
COc1ccc([C@@H](C)NC(=O)/C(C#N)=C/c2c[nH]c3ncc(-c4ccc(C(F)(F)F)cc4)cc23)cc1OC [Example 119] | > 10000 | 1000 to 10000
CC(NC(=O)/C=C/c1c[nH]c2ncccc12)c1ccc(F)cc1 (centres unmarked) [Example 10, (E)-N-(1-(4-fluorophenyl)ethyl)-3-(1H-pyrrolo[2,3-b]pyridin-3-yl)acrylamide] | 1000 to 10000 | 1000 to 10000
COc1ccc([C@@H](C)NC(=O)/C=C/c2c[nH]c3ncc(-c4cccc(CN5CCN(C)CC5)c4)cc23)cc1OC [Example 183] | > 10000 | ≤ 50
C[C@@H](NC(=O)/C(C#N)=C/c1c[nH]c2ncccc12)c1ccccc1Cl [Example 12, (R,E)-N-(1-(2-chlorophenyl)ethyl)-2-cyano-3-(1H-pyrrolo[2,3-b]pyridin-3-yl)acrylamide] | 500 to 1000 | 100 to 500
C[C@@H](NC(=O)/C=C/c1c[nH]c2ncc(-c3cnn(C)c3)cc12)c1ccc2c(c1)OCO2 [Example 246, (R,E)-N-(1-(benzo[d][1,3]dioxol-5-yl)ethyl)-3-(5-(1-methyl-1H-pyrazol-4-yl)-1H-pyrrolo[2,3-b]pyridin-3-yl)acrylamide] | 1000 to 10000 | ≤ 50
COc1ccc([C@@H](C)NC(=O)/C=C/c2c[nH]c3ncc(-c4cccc(-c5ncc[nH]5)c4)cc23)cc1OC [Example 199, (R,E)-3-(5-(3-(1H-imidazol-2-yl)phenyl)-1H-pyrrolo[2,3-b]pyridin-3-yl)-N-(1-(3,4-dimethoxyphenyl)ethyl)acrylamide] | > 10000 | ≤ 50
COc1ccc([C@@H](C)NC(=O)/C=C/c2c[nH]c3ncc(-c4cccc(S(=O)(=O)N(C)C)c4)cc23)cc1OC [Example 198, (R,E)-N-(1-(3,4-dimethoxyphenyl)ethyl)-3-(5-(3-(N,N-dimethylsulfamoyl)phenyl)-1H-pyrrolo[2,3-b]pyridin-3-yl)acrylamide] | 1000 to 10000 | ≤ 50
N#C/C(=C\c1c[nH]c2ncccc12)C(=O)NCc1cc(F)cc(F)c1 [Example 67, (E)-2-cyano-N-(3,5-difluorobenzyl)-3-(1H-pyrrolo[2,3-b]pyridin-3-yl)acrylamide] | 500 to 1000 | 500 to 1000
C[C@@H](NC(=O)/C(C#N)=C/c1c[nH]c2ncccc12)c1cccc(Cl)c1 [Example 13, (R,E)-N-(1-(3-chlorophenyl)ethyl)-2-cyano-3-(1H-pyrrolo[2,3-b]pyridin-3-yl)acrylamide] | 100 to 500 | 50 to 100
C[C@@H](NC(=O)/C(C#N)=C/c1c[nH]c2ncccc12)c1cccc(C(F)(F)F)c1 [Example 18, (R,E)-2-cyano-3-(1H-pyrrolo[2,3-b]pyridin-3-yl)-N-(1-(3-(trifluoromethyl)phenyl)ethyl)acrylamide] | 500 to 1000 | 100 to 500
COc1ccc([C@@H](C)NC(=O)/C(C#N)=C/c2c[nH]c3nccc(-c4cccc(CN(C)C)c4)c23)cc1OC [Example 176, (R,E)-2-cyano-N-(1-(3,4-dimethoxyphenyl)ethyl)-3-(4-(3-((dimethylamino)methyl)phenyl)-1H-pyrrolo[2,3-b]pyridin-3-yl)acrylamide] | 1000 to 10000 | ≤ 50

From US20240294522A1 (Lead Discovery Center GmbH, priority 2021, published 2024)
